In patent publication US9447134B2 (priority 2012, dated 2016):

Legend:
[1] = molecular target: F. tularensis IMPDH (Francisella tularensis, UniProt Q5NFC2); assay: biochemical
[2] = molecular target: B. anthracis IMPDH (Bacillus anthracis, UniProt A0A6L8P2U9); assay: biochemical
Sequence of B. anthracis IMPDH (A0A6L8P2U9 1-487): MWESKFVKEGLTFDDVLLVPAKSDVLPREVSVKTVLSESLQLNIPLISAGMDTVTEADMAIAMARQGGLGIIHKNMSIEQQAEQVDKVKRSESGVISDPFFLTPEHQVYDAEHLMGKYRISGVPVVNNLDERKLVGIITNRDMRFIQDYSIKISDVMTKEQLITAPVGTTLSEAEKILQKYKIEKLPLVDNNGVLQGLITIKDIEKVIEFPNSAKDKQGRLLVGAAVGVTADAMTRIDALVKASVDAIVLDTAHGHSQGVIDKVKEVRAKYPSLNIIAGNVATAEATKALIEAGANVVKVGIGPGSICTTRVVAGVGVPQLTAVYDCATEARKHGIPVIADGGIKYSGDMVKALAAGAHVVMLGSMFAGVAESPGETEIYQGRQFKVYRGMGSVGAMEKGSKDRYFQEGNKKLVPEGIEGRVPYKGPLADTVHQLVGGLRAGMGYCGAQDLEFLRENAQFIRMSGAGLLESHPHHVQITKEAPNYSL

Sequence of F. tularensis IMPDH (Q5NFC2 1-486): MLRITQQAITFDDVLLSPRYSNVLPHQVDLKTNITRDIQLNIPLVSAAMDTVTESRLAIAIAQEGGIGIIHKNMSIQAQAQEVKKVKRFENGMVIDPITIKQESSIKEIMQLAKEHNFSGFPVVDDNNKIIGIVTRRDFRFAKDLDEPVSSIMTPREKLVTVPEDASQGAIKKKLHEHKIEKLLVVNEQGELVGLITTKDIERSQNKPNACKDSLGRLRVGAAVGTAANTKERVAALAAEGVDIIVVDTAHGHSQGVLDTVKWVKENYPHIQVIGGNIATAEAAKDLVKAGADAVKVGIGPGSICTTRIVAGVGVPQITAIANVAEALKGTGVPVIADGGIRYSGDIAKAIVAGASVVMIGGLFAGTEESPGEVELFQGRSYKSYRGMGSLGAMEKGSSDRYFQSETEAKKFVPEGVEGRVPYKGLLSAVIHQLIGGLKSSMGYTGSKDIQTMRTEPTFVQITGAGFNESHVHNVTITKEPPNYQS

SMILES | IC50 [1] | IC50 [2] | melting point
Cn1nc(CC(=O)Nc2ccc(Br)c(C(F)(F)F)c2)c2ccccc2c1=O [Compound D45] | 0.27 µM |  | 
CC(=O)c1cccc(C(C)(C)OC(=O)Nc2ccc(Cl)cc2)c1 [Compound P112] | 0.39 µM | 0.52 µM | 
CC(NC(=O)c1ccc2oc(-c3ccncc3)nc2c1)c1ccccc1 (centres unmarked) [Compound Q63] | 200 µM | 200 µM | 
C=C(C)c1cccc(C(C)(C)NC(=O)Nc2ccc3c(c2)OCCO3)c1 [Compound P113] | 0.041 µM | 0.11 µM | 
C=C(C)c1cccc(C(C)(C)NC(=O)Nc2ccc(Cl)c(Cl)c2)c1 [Compound 5h, 1-(3,4-Dichlorophenyl)-3-(2-(3-(prop-1-en-2-yl)phenyl)propan-2-yl)urea] |  |  | 198 to 200 °C
C=C(C)c1cccc(C(C)(C)NC(=O)Nc2ccc(Cl)c(C(=O)O)c2)c1 [Compound P138] | 0.12 µM | 0.067 µM | 
C[C@H](Sc1cccc(Cl)c1Cl)C(=O)Nc1ccc2oc(-c3ccncc3)nc2c1 [Compound Q75] | 0.192 µM | 0.151 µM | 
C/C(=N\O)c1cccc(C(C)(C)NC(=O)Nc2ccc3cccnc3c2)c1 [Compound 7e, (E)-1-(2-(3-(1-(Hydroxyimino)ethyl)phenyl)propan-2-yl)-3-(quinolin-7-yl)urea] |  |  | 164 to 166 °C
C=C(C)c1cccc(C(C)(C)NC(=O)Nc2ccc3ccccc3c2)c1 [Compound 5o, 1-(Naphthalen-2-yl)-3-(2-(3-(prop-1-en-2-yl)phenyl)propan-2-yl)urea] |  |  | 201 to 203 °C
C=C(C)c1cccc(C(C)(C)NC(=O)Nc2ccccc2)c1 [Compound 5a, 1-Phenyl-3-(2-(3-(prop-1-en-2-yl)phenyl)propan-2-yl)urea] |  |  | 188 to 190 °C
C/C(=N\O)c1cccc(C(C)(C)NC(=O)Nc2ccc(Cl)c(C(F)(F)F)c2)c1 [Compound 7a, (E)-1-(4-Chloro-3-(trifluoromethyl)phenyl)-3-(2-(3-(1-(hydroxyimino)ethyl)phenyl)propan-2-yl)urea] |  |  | 194 to 196 °C
Cn1nc(CC(=O)Nc2ccc(Cl)c(F)c2)c2ccccc2c1=O [Compound D52] |  | 0.9 µM | 
C=C(C)c1cccc(C(C)(C)NC(=O)Nc2ccc3ccccc3n2)c1 [Compound 5t, 1-(2-(3-(prop-1-en-2-yl)phenyl)propan-2-yl)-3-(quinolin-2-yl)urea] |  |  | 126 to 128 °C
C[C@H](Oc1cccc(Cl)c1Cl)C(=O)Nc1ccc2nc(-c3cncs3)oc2c1 [Compound Q64, (S)-2-(2,3-dichlorophenoxy)-N-(2-(thiazol-5-yl)benzo[d]oxazol-6-yl) propanamide] | 0.0937 µM | 0.203 µM | 
C/C(=N\OC(C)(C)C)c1cccc(C(C)(C)NC(=O)Nc2ccc(Cl)c([N+](=O)[O-])c2)c1 [Compound P127] | 1.8 µM | 0.094 µM | 
CC(=NOC(C)(C)C)c1cccc(C(C)(C)NC(=O)Nc2ccc(Cl)c(C(F)(F)F)c2)c1 [Compound P114] | 6.9 µM | 0.056 µM | 
C[C@H](Nc1cccc(Cl)c1Cl)C(=O)Nc1ccc2oc(-c3ccncc3)nc2c1 [Compound Q67, (S)-2-(2,3-dichlorophenylamino)-N-(2-(pyridine-4-yl)benzo[d]oxazol-5-yl)propanamide] | 0.0271 µM | 0.0268 µM | 
